Data as given in ChEMBL document CHEMBL5247656, “Discovery of a Potent, Cooperative, and Selective SOS1 PROTAC ZZ151 with In Vivo Antitumor Efficacy in KRAS-Mutant Cancers” (J Med Chem, 2023).
Calls of active or inactive are those of the source. No cut-off for these calls is given here.

What was measured:
[1] = molecular target: T1, von Hippel-Lindau disease tumor suppressor/Son of sevenless homolog 1 (Homo sapiens) (UniProt Q07889+P40337); assay: PROTAC activity at VHL/SOS1 in human SW480 cells harboring KRAS G12V mutant assessed as induction of SOS1 degradation by measuring maximal efficacy at 1 to 2000 nM incubated for 24 hrs by Immunoblot analysis relative to control; format: cell-based; settings: dose 1-2000 nM
A549 = assay: Antiproliferative activity against human A549 cells harboring KRAS G12S mutant assessed as inhibition of cell proliferation incubated for 7 days by CellTiterGlo-3D proliferation assay; format: functional, cell-based; settings: A549, 168 h
[2] = molecular target: T1, von Hippel-Lindau disease tumor suppressor/Son of sevenless homolog 1 (Homo sapiens); assay: PROTAC activity at VHL/SOS1 in human NCI-H358 cells harboring KRAS G12C mutant with shRNA lentivirus mediated VHL knockdown assessed as induction of SOS1 degradation at 1 uM incubated for 24 hrs by Immunoblot analysis; format: cell-based
[3] = molecular target: T1, von Hippel-Lindau disease tumor suppressor/Son of sevenless homolog 1 (Homo sapiens); assay: PROTAC activity at VHL/SOS1 in human A549 cells harboring KRAS G12S mutant assessed as induction of SOS1 degradation by measuring maximal efficacy at 1 to 2000 nM incubated for 24 hrs by Immunoblot analysis relative to control; format: cell-based; settings: dose 1-2000 nM
[4] = molecular target: von Hippel-Lindau disease tumor suppressor/Son of sevenless homolog 1 (Homo sapiens, UniProt P40337+Q07889, Q61H); assay: PROTAC activity at VHL/SOS1 in human NCI-H460 cells harboring KRAS Q61H mutant assessed as induction of SOS1 degradation incubated for 24 hrs by Immunoblot analysis; format: cell-based
[5] = molecular target: T1, von Hippel-Lindau disease tumor suppressor/Son of sevenless homolog 1 (Homo sapiens); assay: PROTAC activity at VHL/SOS1 in human Calu-1 cells harboring KRAS G12C mutant assessed as induction of SOS1 degradation by measuring maximal efficacy at 1 to 2000 nM incubated for 24 hrs by Immunoblot analysis relative to control; format: cell-based; settings: dose 1-2000 nM
[6] = molecular target: T1, von Hippel-Lindau disease tumor suppressor/Son of sevenless homolog 1 (Homo sapiens); assay: PROTAC activity at VHL/SOS1 in human PANC-1 cells harboring KRAS G12D mutant assessed as induction of SOS1 degradation by measuring maximal efficacy at 1 to 2000 nM incubated for 24 hrs by Immunoblot analysis relative to control; format: cell-based; settings: dose 1-2000 nM
[7] = molecular target: T1, von Hippel-Lindau disease tumor suppressor/Son of sevenless homolog 1 (Homo sapiens); assay: PROTAC activity at VHL/SOS1 in human SK-CO-1 cells harboring G12V mutant assessed as induction of SOS1 degradation by measuring maximal efficacy at 1 to 2000 nM incubated for 24 hrs by Immunoblot analysis relative to control; format: cell-based; settings: dose 1-2000 nM
[8] = molecular target: T1, von Hippel-Lindau disease tumor suppressor/Son of sevenless homolog 1 (Homo sapiens); assay: In vivo PROTAC activity at VHL/SOS1 in human SW620 cells harboring KRAS G12V mutant xenografted BALB/c nude mouse assessed as induction of SOS1 degradation in tumor at 10 to 20 mg/kg, ip administered once daily for 2 weeks by immunohistochemistry analysis; format: functional, organism-based; settings: SW-620, dose 10-20 mg/kg
MIA PaCa-2 = assay: Antiproliferative activity against human MIA PaCa-2 cells harboring KRAS G12C mutant assessed as inhibition of cell proliferation incubated for 7 days by CellTiterGlo-3D proliferation assay; format: functional, cell-based; settings: MIA PaCa-2, 168 h
[9] = molecular target: T1, von Hippel-Lindau disease tumor suppressor/Son of sevenless homolog 1 (Homo sapiens); assay: PROTAC activity at VHL/SOS1 in human ASPC1 cells harboring KRAS G12D mutant assessed as induction of SOS1 degradation at 1 uM preincubated with (R)-1-(4-(4-((1-(3-amino-5-(trifluoromethyl)phenyl)ethyl)amino)-7-methoxy-2-methylquinazolin-6-yl)piperidin-1-yl)ethanone for 4 hrs followed by compound treatment and measured after 24 hrs by immunoblot analysis; format: cell-based
[10] = molecular target: T1, von Hippel-Lindau disease tumor suppressor/Son of sevenless homolog 1 (Homo sapiens); assay: PROTAC activity at VHL/SOS1 in human NCI-H358 cells assessed as induction of SOS1 protein degradation by measuring maximal efficacy at 2 to 2000 nM incubated for 24 hrs by Immunoblot analysis relative to control; format: cell-based; settings: dose 2-2000 nM
[11] = molecular target: T1, von Hippel-Lindau disease tumor suppressor/Son of sevenless homolog 1 (Homo sapiens); assay: PROTAC activity at VHL/SOS1 in human ASPC1 cells harboring KRAS G12D mutant with shRNA lentivirus mediated VHL knockdown assessed as induction of SOS1 degradation at 1 uM incubated for 24 hrs by Immunoblot analysis; format: cell-based
[12] = molecular target: T1, von Hippel-Lindau disease tumor suppressor/Son of sevenless homolog 1 (Homo sapiens); assay: PROTAC activity at VHL/SOS1 in human CAL-62 cells harboring KRAS G12R mutant assessed as induction of SOS1 degradation by measuring maximal efficacy at 1 to 2000 nM incubated for 24 hrs by Immunoblot analysis relative to control; format: cell-based; settings: dose 1-2000 nM
[13] = Toxicity in BALB/c nude mouse xenografted with human SW620 cells harboring KRAS G12V mutant assessed as body weight loss at 10 to 20 mg/kg, ip administered once daily for 2 weeks; format: organism-based, SW-620; settings: in vivo, 336 h, dose 10-20 mg/kg
[14] = molecular target: T1, von Hippel-Lindau disease tumor suppressor/Son of sevenless homolog 1 (Homo sapiens); assay: PROTAC activity at VHL/SOS1 in human NCI-H358 cells assessed as induction of SOS1 protein degradation at 0.1 uM incubated for 24 hrs by Immunoblot analysis relative to control; format: cell-based
[15] = molecular target: T1, von Hippel-Lindau disease tumor suppressor/Son of sevenless homolog 1 (Homo sapiens); assay: PROTAC activity at VHL/SOS1 in human A549 cells harboring KRAS G12S mutant assessed as induction of SOS1 degradation at 1 uM incubated for 2 to 4 hrs by Immunoblot analysis; format: cell-based; settings: time 2-4 hrs
[16] = molecular target: T1, von Hippel-Lindau disease tumor suppressor/Son of sevenless homolog 1 (Homo sapiens); assay: PROTAC activity at VHL/SOS1 in human Lovo cells harboring KRAS G13D mutant assessed as induction of SOS1 degradation by measuring maximal efficacy at 1 to 2000 nM incubated for 24 hrs by Immunoblot analysis relative to control; format: cell-based; settings: dose 1-2000 nM
[17] = molecular target: T1, von Hippel-Lindau disease tumor suppressor/Son of sevenless homolog 1 (Homo sapiens); assay: PROTAC activity at VHL/SOS1 in human SW620 cells harboring KRAS G12V mutant assessed as induction of SOS1 degradation by measuring maximal efficacy at 1 to 2000 nM incubated for 24 hrs by Immunoblot analysis relative to control; format: cell-based; settings: dose 1-2000 nM
[18] = molecular target: von Hippel-Lindau disease tumor suppressor/Son of sevenless homolog 1 (Homo sapiens, UniProt P40337+Q07889); assay: PROTAC activity at VHL/SOS1 in human NCI-H358 cells assessed as induction of SOS1 protein degradation incubated for 24 hrs by Immunoblot analysis; format: cell-based
ASPC1 = assay: Antiproliferative activity against human ASPC1 cells harboring KRAS G12D mutant assessed as inhibition of cell proliferation incubated for 7 days by CellTiterGlo-3D proliferation assay; format: functional, cell-based; settings: ASPC1, 168 h
[19] = molecular target: T1, von Hippel-Lindau disease tumor suppressor/Son of sevenless homolog 1 (Homo sapiens); assay: PROTAC activity at VHL/SOS1 in human NCI-H358 cells assessed as induction of SOS1 protein degradation at 1.0 uM incubated for 24 hrs by Immunoblot analysis relative to control; format: cell-based
[20] = molecular target: T1, von Hippel-Lindau disease tumor suppressor/Son of sevenless homolog 1 (Homo sapiens); assay: PROTAC activity at VHL/SOS1 in human NCI-H358 cells harboring KRAS G12C mutant assessed as induction of SOS1 degradation at 1 uM preincubated with MG132 for 4 hrs followed by compound treatment and measured after 24 hrs by Immunoblot analysis; format: cell-based
[21] = molecular target: T1, von Hippel-Lindau disease tumor suppressor/Son of sevenless homolog 1 (Homo sapiens); assay: PROTAC activity at VHL/SOS1 in human UMUC3 cells harboring KRAS G12C mutant assessed as induction of SOS1 degradation by measuring maximal efficacy at 1 to 2000 nM incubated for 24 hrs by Immunoblot analysis relative to control; format: cell-based; settings: dose 1-2000 nM
[22] = molecular target: T1, von Hippel-Lindau disease tumor suppressor/Son of sevenless homolog 1 (Homo sapiens); assay: In vivo PROTAC activity at VHL/SOS1 in human ASPC1 cells harboring KRAS G12D mutant xenografted BALB/c nude mouse assessed as induction of SOS1 degradation administered intraperitoneally once daily for 3 weeks by immunohistochemistry analysis; format: functional; settings: dose 10-20 mg/kg, route ip

T1 sequence (P40337 whole entry, looked up): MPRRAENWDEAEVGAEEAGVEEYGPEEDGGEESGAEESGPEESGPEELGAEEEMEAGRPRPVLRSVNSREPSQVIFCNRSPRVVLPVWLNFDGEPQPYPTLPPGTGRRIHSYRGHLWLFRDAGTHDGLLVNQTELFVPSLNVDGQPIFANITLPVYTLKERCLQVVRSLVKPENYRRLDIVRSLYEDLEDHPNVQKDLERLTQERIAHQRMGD
T1 sequence (Q07889 whole entry, looked up): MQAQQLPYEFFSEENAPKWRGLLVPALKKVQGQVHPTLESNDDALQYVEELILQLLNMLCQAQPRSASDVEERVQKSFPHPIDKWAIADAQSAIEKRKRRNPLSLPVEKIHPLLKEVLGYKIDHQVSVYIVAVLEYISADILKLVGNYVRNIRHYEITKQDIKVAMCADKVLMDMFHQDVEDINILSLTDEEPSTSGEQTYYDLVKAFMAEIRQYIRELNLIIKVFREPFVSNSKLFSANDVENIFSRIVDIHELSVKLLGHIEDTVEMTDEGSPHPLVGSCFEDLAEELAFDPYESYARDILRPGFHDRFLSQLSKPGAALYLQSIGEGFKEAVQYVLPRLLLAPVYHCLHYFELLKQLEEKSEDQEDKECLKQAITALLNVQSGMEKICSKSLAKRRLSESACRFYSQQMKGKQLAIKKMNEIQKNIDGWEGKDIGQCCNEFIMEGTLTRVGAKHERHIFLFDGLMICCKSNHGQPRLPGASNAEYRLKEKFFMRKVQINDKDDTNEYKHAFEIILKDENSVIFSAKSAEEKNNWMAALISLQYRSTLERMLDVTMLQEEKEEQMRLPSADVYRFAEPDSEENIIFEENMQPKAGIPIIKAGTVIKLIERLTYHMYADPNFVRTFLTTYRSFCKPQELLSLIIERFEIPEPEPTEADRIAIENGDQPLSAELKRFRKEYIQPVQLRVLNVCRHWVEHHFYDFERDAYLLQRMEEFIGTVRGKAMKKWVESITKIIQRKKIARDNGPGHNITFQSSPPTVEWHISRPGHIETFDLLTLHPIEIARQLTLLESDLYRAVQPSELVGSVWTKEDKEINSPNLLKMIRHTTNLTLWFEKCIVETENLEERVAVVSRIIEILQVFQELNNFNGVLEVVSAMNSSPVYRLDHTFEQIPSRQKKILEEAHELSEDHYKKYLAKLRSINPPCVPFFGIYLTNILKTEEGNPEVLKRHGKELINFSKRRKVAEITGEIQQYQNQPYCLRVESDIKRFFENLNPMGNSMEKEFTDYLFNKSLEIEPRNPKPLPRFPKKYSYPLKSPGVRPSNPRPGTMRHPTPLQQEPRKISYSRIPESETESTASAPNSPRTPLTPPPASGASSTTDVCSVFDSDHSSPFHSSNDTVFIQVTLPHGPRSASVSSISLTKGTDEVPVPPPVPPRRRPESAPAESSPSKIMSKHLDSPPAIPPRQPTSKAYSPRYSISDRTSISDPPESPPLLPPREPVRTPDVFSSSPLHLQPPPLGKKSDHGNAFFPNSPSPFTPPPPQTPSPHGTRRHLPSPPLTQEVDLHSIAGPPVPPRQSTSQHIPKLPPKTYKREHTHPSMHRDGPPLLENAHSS
von Hippel-Lindau disease tumor suppressor/Son of sevenless homolog 1 (Homo sapiens, UniProt P40337+Q07889), sequence (Q07889 whole entry): as the sequence (Q07889 whole entry, looked up) above
von Hippel-Lindau disease tumor suppressor/Son of sevenless homolog 1 (Homo sapiens, UniProt P40337+Q07889), sequence (P40337 whole entry): as the sequence (P40337 whole entry, looked up) above

For `COc1cc2nc(C)nc(N[C@H](C)c3cc(N)cc(C(F)(F)F)c3)c2cc1C1CCN(C(=O)CCCCCC(=O)N[C@H](C(=O)N2C[C@H](O)C[C@H]2C(=O)N[C@@H](C)c2ccc(-c3scnc3C)cc2)C(C)(C)C)CC1`, the Emax [1] was over 95%, the IC50 (A549) was 105 nM and the Activity [2] was “inactive”. It also gave an Emax [3] of over 95%, an EC50 [4] of 81.7 nM and an Emax [5] of over 95%. For the same compound, the Emax [6] was over 95%, the Emax [7] was over 95% and the Activity [8] was “Active”. For the same compound, the IC50 (MIA PaCa-2) was 10.1 nM, the Activity [9] was “inactive” and the Emax [10] was 100%. The Activity [11] was “inactive”, the Emax [12] was over 95% and the Activity [13] was “Non-Toxic”. For the same compound, the Activity [14] was 83.9%, the Activity [15] was “Active” and the Emax [16] was over 95%. The Emax [17] was over 95%, the EC50 [18] was 15.7 nM and the IC50 (ASPC1) was 6.97 nM. The Activity [19] was 98.2%, the Activity [20] was “inactive” and the Emax [21] was over 95%. The Activity [22] was “Dose-Dependent Effect”.
